How the values were obtained:
[1] = Solubility of cabazitaxel in 40% SBE-β-CD aqueous solution; assay type: physicochemical; conditions: found by the present inventors
Excerpt: Cyclodextrin, a pharmaceutical excipient, has a hollow hydrophobic, stereoscopic chiral inner cavity; due to its structural characteristic of “inner hydrophobic, external hydrophilic”, it can encapsulate a variety of small organic molecules (substrates) having suitable space size to form a noncovalent host-guest complex (inclusion complex). Its most significant pharmaceutical function is to increase the water solubility of poorly soluble drugs and improve the stability of drugs. For example, the invention application No. CA2900508A1 (US20150325321A1) by Valery Alakhov et al. disclosed a composition comprising cabazitaxel and suifobutyl ether beta cyclodextrin (SBF-β-CD) in a weight ratio of 1:30 to 1:1000. […] Even if it can reach such concentration, it is difficult to prepare a cabazitaxel injection that meets the concentration specifications of commercial preparations.

[2] = Solubility of cabazitaxel in PEG300/SBE-β-CD/PVPK12/water solution system with additives; assay type: physicochemical; conditions: 700 mg/ml PEG300, 290 mg/ml SBE-β-CD, 80 mg/ml PVPK12, water, nitrogen
Excerpt: In view of various defects of the prior art, the inventor of the present application breaks through the prejudice of the prior art, conducts reverse experiments on existing knowledge, reduces the amount of cyclodextrin and abandons the use of ethanol having strong stimulation as a solvent and Tween 80 having side effects.

[3] = cited from earlier work

Substance: (1S,2S,3R,4S,7R,9S,10S,12R,15S)-4-acetyloxy-15-{[(2R,3S)-3-{[(tertbutoxy)carbonylamino]}-2-hydroxy-3-phenylpropanoyl]oxy}-1-hydroxy-9, 12-dimethoxy-10,14,17,17-tetramethyl-11-oxo-6-oxatetracyclo[11.3.1.0^3:10.0^4:7]heptadec-13-ene-2-yl benzoate [cabazitaxel]
- solubility of cabazitaxel [1]: about 1 mg/mL
- solubility of cabazitaxel [2]: ≥ 40 mg/mL
- stability under alkaline conditions ([3]; alkaline conditions): unstable under alkaline conditions
- solubility in ethanol ([3]; ethanol): soluble in ethanol
- solubility in water ([3]; water): almost insoluble in water

Reference: patent publication US20200268705A1, “CABAZITAXEL COMPOSITION FOR INJECTION AND PREPARATION METHOD THEREFOR” (BIKA BIOTECHNOLOGY (GUANGZHOU) CO., LTD., priority 2018, published 2020)
